As usually defined, the EC50 is the concentration needed to bring the measured effect to its halfway point.

Here are results for 16 compounds from patent US9278915B2, “Agonists of GPR40” (CONNEXIOS LIFE SCIENCES PVT LTD, priority 2010, dated 2016).

The target in this test is T1, hGPR40 (Homo sapiens, UniProt O14842).
T1 construct: expressed in transfected cells
T1 sequence (O14842 whole entry): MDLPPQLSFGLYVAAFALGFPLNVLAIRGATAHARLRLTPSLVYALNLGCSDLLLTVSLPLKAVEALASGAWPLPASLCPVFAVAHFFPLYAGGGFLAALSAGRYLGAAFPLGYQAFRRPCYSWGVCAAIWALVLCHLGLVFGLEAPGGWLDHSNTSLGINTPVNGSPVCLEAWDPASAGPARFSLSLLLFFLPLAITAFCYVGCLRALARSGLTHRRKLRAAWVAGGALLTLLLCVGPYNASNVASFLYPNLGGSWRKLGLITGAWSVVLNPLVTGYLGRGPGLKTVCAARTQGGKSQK
Nature of the test: Calcium flux assay to detect GPR40 activation. In kind it is cell-based. The settings on record: CHO-K cells stably expressing hGPR40; Fluo-4 NW; read for 4 min at 5 s intervals. In a few lines: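 CHO-K cells stably expressing hGPR40 were cultured 24 h at 37 °C and loaded with Fluo-4 NW for 30 min at 37 °C plus 30 min at RT. Compounds diluted in HEPES buffer were added, and calcium fluorescence was recorded for 4 min at 5 s intervals.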
(In general: Calcium flux is commonly read through the fluorescence of an indicator in the cells.)
As to `CO/N=C(\COc1ccc(COc2ccc(C(C#N)CC(=O)O)c(F)c2)cc1)c1ccccc1` (stereo not shown) [Compound 77, 3-Cyano-3-{2-fluoro-4-[(4-{[(2Z)-2-(methoxyimino)-2-phenylethyl]oxy}benzyl)oxy]phenyl}propanoic acid], the EC50 was less than 10 nM.
As for `CO/N=C(\COc1ccc(COc2ccc(C3CC3C(=O)O)cc2)cc1)c1ccc(OC)cc1` (stereo not shown) [Compound 46, 2-{4-[(4-{[(2Z)-2-(Methoxyimino)-2-(4-methoxyphenyl)ethyl]oxy}benzyl)oxy]phenyl}cyclopropanecarboxylic acid], the 50% effective concentration (EC50) was in the range of 10 to 100 nM.
On to `CO/N=C(\COc1ccc(COc2ccc(C(O)CC(=O)O)cc2)cc1)c1ccccc1` (stereo not shown) [Compound 119, 3-Hydroxy-3-{4-[(4-{[(2Z)-2-(methoxyimino)-2-phenylethyl]oxy}benzyl)oxy]phenyl}propanoic acid], for which the EC50 was greater than 100 nM.
The result for `CO/N=C(\COc1ccc(COc2ccc(C(C#N)CC(=O)O)cc2)cc1)c1ccccc1` (single isomer, unassigned; (+)) [Compound 81, (+)-Sodium 3-cyano-3-{4-[(4-{[(2Z)-2-(methoxyimino)-2-phenylethyl]oxy}benzyl)oxy]phenyl}propanoate] reads 10 to 100 nM; that for `N#CC(CC(=O)O)c1ccc(OCc2ccc(OC/C(=N\O)c3ccccc3)cc2)cc1` (stereo not shown) [Compound 78, 3-Cyano-3-{4-[(4-{[(2E,2Z)-2-(hydroxyimino)-2-phenylethyl]oxy}benzyl)oxy]phenyl}propanoic acid], 10 to 100 nM; that for `CC#CC(CC(=O)O)c1ccc(OCc2ccc(OC/C(=N\OC)c3ccccc3)cc2)cc1` (stereo not shown) [Compound 85, 3-{4-[(4-{[(2Z)-2-(Methoxyimino)-2-phenylethyl]oxy}benzyl)oxy]phenyl}hex-4-ynoic acid], less than 10 nM.
The result for `CO/N=C(\COc1ccc(COc2ccc(C(CC(=O)O)c3ccon3)cc2)cc1)c1ccccc1` (stereo not shown) [Compound 17, 3-{4-[(4-{[(2Z)-2-(methoxyimino)-2-phenylethyl]oxy}benzyl)oxy]phenyl}-3-(1,2-oxazol-3-yl)propanoic acid] reads 10 to 100 nM.
The result for `CO/N=C(/c1ccccc1)c1ccc(CNc2ccc(CCC(=O)O)cc2)cc1` [Compound 3, 3-[4-({4-[(E,Z)-(Methoxyimino)(phenyl)methyl]benzyl}amino)phenyl]propanoic acid] reads greater than 100 nM; that for `CO/N=C(\COc1ccc(COc2ccc(CCC(=O)O)c(OC)c2)cc1)c1ccccc1` [Compound 37, 3-{2-Methoxy-4-[(4-{[(2Z)-2-(methoxyimino)-2-phenylethyl]oxy}benzyl)oxy]phenyl}propanoic acid], greater than 100 nM; that for `CO/N=C(\COc1ccc(COc2ccc(C(C#N)CC(=O)O)cc2)cc1)c1cccc(F)c1` (stereo not shown) [Compound 55, Sodium 3-cyano-3-{4-[(4-{[(2Z)-2-(3-fluorophenyl)-2-(methoxyimino)ethyl]oxy}benzyl)oxy]phenyl}propanoate], less than 10 nM.
Regarding `CC(C)O/N=C(/c1ccccc1)c1cccc(CNc2ccc(CCC(=O)O)cc2)c1` [Compound 10, 3-{4-[(3-{(E,Z)-Phenyl[(propan-2-yloxy)imino]methyl}benzyl)amino]phenyl}propanoic acid], the EC50 is greater than 100 nM.
The value for `CO/N=C(\COc1ccc(COc2ccc(C(CC(=O)O)c3c(C)noc3C)cc2)cc1)c1ccccc1` (stereo not shown) [Compound 67, 3-(3,5-Dimethyl-1,2-oxazol-4-yl)-3-{4-[(4-{[(2E,2Z)-2-(methoxyimino)-2-phenylethyl]oxy}benzyl)oxy]phenyl}propanoic acid] was greater than 100 nM; that for `CO/N=C(\COc1ccc(COc2ccc(C(C#N)CC(=O)O)cc2)cc1)c1ccccc1` (stereo not shown) [Compound 31, Potassium 3-cyano-3-{4-[(4-{[(2Z)-2-(methoxyimino)-2-phenylethyl]oxy}benzyl)oxy]phenyl}propanoate] was less than 10 nM.
The result for `CO/N=C(/COc1ccc(COc2ccc(C(C#N)CC(=O)O)cc2)cc1)c1cccc(C)c1` (racemic) [Compound 27, 3-Cyano-3-{4-[(4-{[(2E,2Z)-2-(methoxyimino)-2-(3-methylphenyl)ethyl]oxy}benzyl)oxy]phenyl}propanoic acid] reads 10 to 100 nM; that for `CO/N=C(\COc1ccc(COc2ccc(C(C#N)CC(=O)O)cc2)cc1)c1ccccc1` (single isomer, unassigned; (-)) [Compound 82, (−)-Sodium 3-cyano-3-{4-[(4-{[(2E,2Z)-2-(methoxyimino)-2-phenylethyl]oxy}benzyl)oxy]phenyl}propanoate], less than 10 nM.
The result for `CO/N=C(\COc1ccc(COc2ccc(/C(CC(=O)O)=N\OC)cc2)cc1)c1ccccc1` [Compound 68, (3E,3Z)-3-(Methoxyimino)-3-{4-[(4-{[(2Z)-2-(methoxyimino)-2-phenylethyl]oxy}benzyl)oxy]phenyl}propanoic acid] reads greater than 100 nM.
